Structures can show the parent of a compound that is named as a salt.
Tests used:
[1] = test system: tumor-bearing mouse model (non-small cell lung cancer model having ghrelin resistance), A549 cells planted into nude mice; assay: Food intake and body weight in tumor-bearing mouse model (non-small cell lung cancer model having ghrelin resistance), dosing from Day 43 after A549 plantation; assay type: in vivo; conditions: oral daily for 28 days (Day 43 to Day 70), Compound 1 0.25 mg/kg, anamorelin hydrochloride 30 mg/kg, combined 0.25 + 30 mg/kg, Dunnett's test P<0.05; for cumulative food intake in the period of administration, compared to distilled water-treated group: FIG. 1; for body weight after 28-day administration, compared to distilled water-treated group: FIG. 2
Protocol: Using tumor-bearing model animals where human alveolar basement epidermal gland cancer cells, A549 cells, were planted into nude mice, examination was performed about drug efficacy on the food intake and the body weight when Compound 1 and anamorelin hydrochloride (MedChemExpress LLC) were combined.
Subculture of A549 cells was performed using a 10% FBS-containing RPMI1640 culture medium. In evaluation of drug efficacy, 7-week old female BALB/C slc/nu/nu mice (Japan SLC, Inc.) were purchased, and used after habituated for one week. Tumor-bearing model animals were prepared as follows. Specifically, 2.5×10^7 cells of A549 cells were planted to the right abdominal of each mouse by subdermal administration. On Day 41 from the cell plantation, the mice were divided into groups to have an equal averaged tumor volume.
The effects of a variety of compounds on food intake and body weight were examined as follows. Specifically, for 28 days from Day 43 to Day 70 from the cell plantation, the compounds were orally administered daily, and the food intake and the body weight were measured at the same time. For the doses of the compounds, the dose of Compound 1 was 0.25 mg/kg (9 examples), and that of anamorelin hydrochloride was 30 mg/kg (9 examples). In combined administration of Compound 1 and anamorelin hydrochloride, 0.25 mg/kg of Compound 1 and 30 mg/kg of anamorelin hydrochloride were used, where Compound 1 and anamorelin hydrochloride preliminarily dissolved in distilled water mixed for preparation (9 examples). As a control, distilled water was administered in the same manner (9 examples). The food intake was calculated by subtracting the weight of the lid of each single cage containing food on the previous day from the weight of the lid of the single cage containing food on the day of measurement.
In FIG. 1, the ordinate represents the cumulative food intake in the period of administration of the compounds (from the start of administration to the day next to the final day of administration). In FIG. 2, the ordinate represents the body weight on Day 29 from the start of administration of the compounds (the day next to the final day of administration) (after 28-day administration). In the abscissas of FIGS. 1 and 2, “Distilled water” represents distilled water-treated group, “Compound 1” represents Compound 1-treated group, “Anamorelin” represents anamorelin hydrochloride-treated group, and “Combined administration” represents Compound 1 and anamorelin hydrochloride-combined treatment group. In FIGS. 1 and 2, the mark “*” represents a statistical significance (*: P<0.05) compared to distilled water-treated group (Dunnett's multiple test).

[2] = test system: tumor-bearing mouse model (skin cancer model), B16/F10 cells planted to mice; assay: Food intake and body weight in tumor-bearing mouse model (skin cancer model), B16/F10 cells; assay type: in vivo; conditions: oral daily for 11 days (Day 5 to Day 15), Compound 1 0.05 mg/kg, anamorelin hydrochloride 30 mg/kg, combined 0.05 + 30 mg/kg; for cumulative food intake in the period of administration, compared to distilled water-treated group: Dunnett's test P<0.05, FIG. 5; for body weight after 11-day administration, compared to distilled water-treated group: FIG. 6
Protocol: Using tumor-bearing model animals where mouse malignant melanoma cells, B16/F10 cells, were planted to mice, and examination performed about the drug efficacy to the food intake and the body weight when Compound 1 and anamorelin hydrochloride were combined.
Subculture of B16/F10 cells was performed using a DMEM culture medium containing 10% FBS and penicillin-streptomycin. In evaluation of the drug efficacy, 6-weeks old female C57BL/6J mice (Charles River Laboratories, Japan, Inc.) when introduced were used after habituated for one week. The tumor-bearing model animals were prepared as follows. Specifically, 5×10^6 cells of B16/F10 cells were planted to the right abdominal of each mouse by subdermal administration. On Day 5 from the cell plantation, the mice were divided into groups to have an equal averaged tumor volume.
The effects of a variety of compounds on food intake and body weight were examined as follows. Specifically, for 11 days from Day 5 to Day 15 from the cell plantation, the compounds were orally administered daily, and the food intake and the body weight measured at the same time. For the doses of the compounds, the dose of Compound 1 was 0.05 mg/kg (8 examples), and that of anamorelin hydrochloride was 30 mg/kg (8 examples). In combined administration of Compound 1 and anamorelin hydrochloride, 0.05 mg/kg of Compound 1 and 30 mg/kg of anamorelin hydrochloride were used, where Compound 1 and anamorelin hydrochloride preliminarily dissolved in distilled water were mixed for preparation (8 examples). As a control, distilled water was administered in the same manner (8 examples). The food intake was calculated by subtracting the weight of the lid of each single cage containing food on the previous day from the weight of the lid of the single cage containing food on the day of measurement. Eight individuals of each group were divided into two cases, in each of which 4 individuals were raised. The food intake per one mouse was calculated by dividing the total food intake of the 2 cases by 8.
In FIG. 5, the ordinate represents the cumulative food intake in the period of administration of the compounds (from the start of administration to the day next to the final day of administration). In FIG. 6, the ordinate represents the body weight on Day 12 from the start of administration of the compounds (the day next to the final day of administration) (after 11-day administration). In the abscissas in FIGS. 5 and 6, “Distilled water” represents distilled water-treated group, “Compound 1” represents Compound 1-treated group, “Anamorelin” represents anamorelin hydrochloride-treated group, and “Combined administration” represents Compound 1 and anamorelin hydrochloride-combined treatment group. […]

[3] = test system: tumor-bearing mouse model (non-small cell lung cancer model), A549 cells planted to nude mice; assay: Food intake and body weight in tumor-bearing mouse model (non-small cell lung cancer model), dosing from Day 23 after A549 plantation; assay type: in vivo; conditions: oral daily for 28 days (Day 23 to Day 50), Compound 1 0.25 mg/kg, anamorelin hydrochloride 30 mg/kg, combined 0.25 + 30 mg/kg, Dunnett's test P<0.05; for cumulative food intake in the period of administration, compared to distilled water-treated group: FIG. 3; for body weight after 28-day administration, compared to distilled water-treated group: FIG. 4
Protocol: Using tumor-bearing model animals where human alveolar basement epidermal gland cancer cells, A549 cells, were planted to nude mice, examination was performed about the drug efficacy on the food intake and body weight when Compound 1 and anamorelin hydrochloride were combined.
Subculture of A549 cells was performed using a 10% FBS-containing RPMI1640 culture medium. In evaluation of drug efficacy, 7-week old female BALB/C slc/nu/nu mice (Japan SLC, Inc.) were purchased, and used after habituated for one week. Cancer-bearing model animals were prepared as follows. Specifically, 2.5×10^7 cells of A549 cells were planted to the right abdominal of each mouse by subdermal administration. On Day 22 from the cell plantation, the mice were divided into groups to have an equal averaged tumor volume.
The effects of a variety of compounds on food intake and body weight were examined as follows. Specifically, for 28 days from Day 23 to Day 50 from the cell plantation, the compounds were orally administered daily, and the food intake and the body weight measured at the same time. For the doses of the compounds, the dose of Compound 1 was 0.25 mg/kg (13 examples), and the dose of anamorelin hydrochloride was 30 mg/kg (13 examples). In combined administration of Compound 1 and anamorelin hydrochloride, 0.25 mg/kg of Compound 1 and 30 mg/kg of anamorelin hydrochloride were used, where Compound 1 and anamorelin hydrochloride preliminarily dissolved in distilled water were mixed for preparation (13 examples). As a control, distilled water was administered in the same manner (13 examples). The food intake was calculated by subtracting the weight of the lid of each single cage containing food on the previous day from the weight of the lid of the single cage containing food on the day of measurement.
In FIG. 3, the ordinate represents the cumulative food intake in the period of administration of the compounds (from the start of administration to the day next to the final day of administration). In FIG. 4, the ordinate represents the body weight on Day 29 from the start of administration of the compounds (the day next to the final day of administration) (after 28-day administration). In the abscissas of FIGS. 3 and 4, “Distilled water” represents distilled water-treated group, “Compound 1” represents Compound 1-treated group, “Anamorelin” represents anamorelin hydrochloride-treated group, and “Combined administration” represents Compound 1 and anamorelin hydrochloride combined-treatment group. In FIGS. 3 and 4, the mark “*” represents a statistical significance (*: P<0.05) compared to distilled water-treated group (Dunnett's multiple test).

[4] = third phase clinical trials; cited from earlier work

Compound: CN(C(=O)/C=C/c1ccoc1)[C@@H]1CC[C@@]2(O)[C@H]3Cc4ccc(O)c5c4[C@@]2(CCN3CC2CC2)[C@H]1O5 [Compound 1, (−)-17-(cyclopropylmethyl)-3,14β-dihydroxy-4,5α-epoxy-6β-[N-methyl-trans-3-(3-furyl)acrylamide]morphinanhydrochloride]
- cumulative food intake in the period of administration, compared to distilled water-treated group [1]: any statistically significant increase of food intake was not observed
- body weight after 28-day administration, compared to distilled water-treated group [1]: any statistically significant increase in body weight was not observed
- cumulative food intake in the period of administration, compared to distilled water-treated group [2]: any statistically significant increase food intake was not observed
- body weight after 11-day administration, compared to distilled water-treated group [2]: a tendency of increasing body weight was not exhibited
- cumulative food intake in the period of administration, compared to distilled water-treated group [3]: statistically significant increase of food intake was exhibited
- body weight after 28-day administration, compared to distilled water-treated group [3]: statistically significant increase of body weight was exhibited

Compound: CN(C)N(C)C(=O)[C@@]1(Cc2ccccc2)CCCN(C(=O)[C@@H](Cc2c[nH]c3ccccc23)NC(=O)C(C)(C)N)C1 [anamorelin hydrochloride, 2-amino-N-[(1R)-2-[(3R)-3-benzyl-3-(N,N′,N′-trimethylhydrazinocarbonyl)piperidin-1-yl-]-1-(1H-indol-3-ylmethyl)-2-oxoethyl]-2-methylpropionamide]
- cumulative food intake in the period of administration, compared to distilled water-treated group [1]: any statistically significant increase of food intake was not observed
- body weight after 28-day administration, compared to distilled water-treated group [1]: any statistically significant increase in body weight was not observed
- lean body mass [4]: significantly increases lean body mass
- cumulative food intake in the period of administration, compared to distilled water-treated group [2]: any statistically significant increase food intake was not observed
- body weight after 11-day administration, compared to distilled water-treated group [2]: a tendency of increasing body weight was not exhibited
- cumulative food intake in the period of administration, compared to distilled water-treated group [3]: a tendency of increasing food intake was observed
- body weight after 28-day administration, compared to distilled water-treated group [3]: statistically significant increase of body weight was exhibited

Reference: US20240139176A1, “METHODS OF TREATING OR PREVENTING CACHEXIA” (Toray Industries, Inc., priority 2019, published 2024)
